Laboratory results published in the OligoGym collection.
HELM strings list units from the 5' end as sugar, base in round brackets, then linkage (d deoxyribose, r ribose, m 2'-O-methyl, p phosphodiester). Strings are as the collection lists them; they lack the last nucleoside at the 3' end of the tested compound. [moe] = 2'-O-(2-methoxyethyl) (MOE); [sp] = phosphorothioate linkage; [m5C] = 5-methylcytosine

Target: LRRK2
Assay: mouse, dose not given
Conditions: ASO

Substance	3 h FOB score
RNA1{[moe](A)[sp].[moe](T)p.[moe]([m5C])p.[moe]([m5C])p.[moe](A)[sp].d([m5C])[sp].d(A)[sp].d(T)[sp].d(T)[sp].d(T)[sp].d([m5C])[sp].d(T)[sp].d(G)[sp].d(A)[sp].d(A)[sp].[moe](T)p.[moe]([m5C])p.[moe]([m5C])[sp].[moe]([m5C])}$$$$ (last 3' nucleoside missing)	4 score 0-7
RNA1{[moe](A)[sp].[moe](G)[sp].[moe](T)[sp].[moe](T)[sp].[moe]([m5C])[sp].d([m5C])[sp].d(T)[sp].d(T)[sp].d([m5C])[sp].d(A)[sp].d(G)[sp].d(T)[sp].d([m5C])[sp].d(T)[sp].d([m5C])[sp].[moe](A)[sp].[moe](A)p.[moe](G)[sp].[moe](G)}$$$$ (last 3' nucleoside missing)	7 score 0-7
RNA1{[moe](T)[sp].[moe]([m5C])p.[moe](A)p.[moe]([m5C])p.[moe]([m5C])[sp].d(A)[sp].d([m5C])[sp].d(A)[sp].d(A)[sp].d(A)[sp].d([m5C])[sp].d(T)[sp].d([m5C])[sp].d(A)[sp].d(T)[sp].[moe](G)p.[moe](G)p.[moe](A)[sp].[moe]([m5C])}$$$$ (last 3' nucleoside missing)	3 score 0-7
RNA1{[moe]([m5C])[sp].[moe](T)p.[moe](T)p.[moe](T)p.[moe]([m5C])[sp].d(A)[sp].d([m5C])[sp].d(T)[sp].d([m5C])[sp].d(A)[sp].d(T)[sp].d(A)[sp].d(G)[sp].d(G)[sp].d(G)[sp].[moe](A)p.[moe](A)p.[moe](T)[sp].[moe](G)}$$$$ (last 3' nucleoside missing)	2.5 score 0-7
RNA1{[moe](G)[sp].[moe]([m5C])p.[moe]([m5C])[sp].[moe](A)[sp].[moe]([m5C])[sp].d(T)[sp].d(T)[sp].d(T)[sp].d([m5C])[sp].d(A)[sp].d(G)[sp].d([m5C])[sp].d([m5C])[sp].d(A)[sp].d([m5C])[sp].[moe](T)[sp].[moe](T)p.[moe]([m5C])[sp].[moe](A)}$$$$ (last 3' nucleoside missing)	7 score 0-7
RNA1{[moe](T)[sp].[moe]([m5C])p.[moe](A)p.[moe](G)p.[moe](T)[sp].d(T)[sp].d([m5C])[sp].d([m5C])[sp].d(T)[sp].d(T)[sp].d([m5C])[sp].d(A)[sp].d(G)[sp].d(T)[sp].d([m5C])[sp].[moe](T)p.[moe]([m5C])p.[moe](A)[sp].[moe](A)}$$$$ (last 3' nucleoside missing)	4 score 0-7
RNA1{[moe](A)[sp].[moe](T)p.[moe](A)[sp].[moe](G)[sp].[moe]([m5C])[sp].d(T)[sp].d(T)[sp].d([m5C])[sp].d([m5C])[sp].d(A)[sp].d([m5C])[sp].d([m5C])[sp].d(A)[sp].d([m5C])[sp].d(A)[sp].[moe](A)[sp].[moe](T)p.[moe](A)[sp].[moe](T)}$$$$ (last 3' nucleoside missing)	2 score 0-7
RNA1{[moe]([m5C])[sp].[moe]([m5C])p.[moe](A)p.[moe](T)p.[moe](A)[sp].d(T)[sp].d(T)[sp].d(T)[sp].d(A)[sp].d(G)[sp].d([m5C])[sp].d(T)[sp].d(T)[sp].d(A)[sp].d(T)[sp].[moe](G)p.[moe](A)p.[moe](T)[sp].[moe](G)}$$$$ (last 3' nucleoside missing)	7 score 0-7
RNA1{[moe](T)[sp].[moe](G)p.[moe](A)[sp].[moe](G)[sp].[moe](T)[sp].d(G)[sp].d([m5C])[sp].d(A)[sp].d(T)[sp].d(G)[sp].d(G)[sp].d([m5C])[sp].d(A)[sp].d(T)[sp].d([m5C])[sp].[moe](A)[sp].[moe](A)p.[moe](A)[sp].[moe](A)}$$$$ (last 3' nucleoside missing)	5 score 0-7
RNA1{[moe](G)[sp].[moe](A)p.[moe](A)[sp].[moe](A)[sp].[moe](T)[sp].d(G)[sp].d(A)[sp].d(G)[sp].d(T)[sp].d(G)[sp].d([m5C])[sp].d(A)[sp].d(T)[sp].d(G)[sp].d(G)[sp].[moe]([m5C])[sp].[moe](A)p.[moe](T)[sp].[moe]([m5C])}$$$$ (last 3' nucleoside missing)	7 score 0-7
RNA1{[moe](G)[sp].[moe](T)p.[moe](T)[sp].[moe](A)[sp].[moe](A)[sp].d([m5C])[sp].d(G)[sp].d([m5C])[sp].d(A)[sp].d([m5C])[sp].d(T)[sp].d(T)[sp].d(A)[sp].d(A)[sp].d([m5C])[sp].[moe](A)[sp].[moe](A)p.[moe](T)[sp].[moe](A)}$$$$ (last 3' nucleoside missing)	2 score 0-7
RNA1{[moe]([m5C])[sp].[moe](T)p.[moe](G)[sp].[moe](T)[sp].[moe](T)[sp].d(A)[sp].d(T)[sp].d(T)[sp].d([m5C])[sp].d(T)[sp].d(G)[sp].d(A)[sp].d(T)[sp].d([m5C])[sp].d(A)[sp].[moe]([m5C])[sp].[moe](A)p.[moe]([m5C])[sp].[moe](G)}$$$$ (last 3' nucleoside missing)	5 score 0-7
RNA1{[moe](T)[sp].[moe]([m5C])p.[moe](A)[sp].[moe](T)[sp].[moe](T)[sp].d([m5C])[sp].d(G)[sp].d(G)[sp].d(T)[sp].d(T)[sp].d(A)[sp].d(T)[sp].d(A)[sp].d(A)[sp].d(G)[sp].[moe](G)[sp].[moe]([m5C])p.[moe](A)[sp].[moe]([m5C])}$$$$ (last 3' nucleoside missing)	7 score 0-7
RNA1{[moe]([m5C])[sp].[moe](T)p.[moe]([m5C])p.[moe](A)p.[moe](T)[sp].d(A)[sp].d(T)[sp].d([m5C])[sp].d(T)[sp].d(A)[sp].d(A)[sp].d(A)[sp].d(G)[sp].d(A)[sp].d([m5C])[sp].[moe]([m5C])p.[moe](G)p.[moe]([m5C])[sp].[moe](A)}$$$$ (last 3' nucleoside missing)	1 score 0-7
RNA1{[moe]([m5C])[sp].[moe](T)p.[moe](T)p.[moe]([m5C])p.[moe](A)[sp].d(G)[sp].d(T)[sp].d(T)[sp].d([m5C])[sp].d([m5C])[sp].d(T)[sp].d(T)[sp].d([m5C])[sp].d(A)[sp].d(G)[sp].[moe](T)p.[moe]([m5C])p.[moe](T)[sp].[moe]([m5C])}$$$$ (last 3' nucleoside missing)	4 score 0-7
RNA1{[moe](T)[sp].[moe](A)p.[moe](A)[sp].[moe]([m5C])[sp].[moe](G)[sp].d([m5C])[sp].d(A)[sp].d([m5C])[sp].d(T)[sp].d(T)[sp].d(A)[sp].d(A)[sp].d([m5C])[sp].d(A)[sp].d(A)[sp].[moe](T)[sp].[moe](A)p.[moe](T)[sp].[moe]([m5C])}$$$$ (last 3' nucleoside missing)	2 score 0-7
RNA1{[moe](G)[sp].[moe](G)p.[moe](A)p.[moe]([m5C])p.[moe](T)[sp].d(T)[sp].d([m5C])[sp].d([m5C])[sp].d(A)[sp].d([m5C])[sp].d(A)[sp].d(T)[sp].d(T)[sp].d(A)[sp].d(T)[sp].[moe](T)p.[moe](G)p.[moe]([m5C])[sp].[moe](A)}$$$$ (last 3' nucleoside missing)	0 score 0-7
RNA1{[moe](T)[sp].[moe](T)p.[moe](A)[sp].[moe](A)[sp].[moe](A)[sp].d(A)[sp].d(T)[sp].d([m5C])[sp].d(T)[sp].d(T)[sp].d([m5C])[sp].d(A)[sp].d(G)[sp].d(T)[sp].d(T)[sp].[moe]([m5C])[sp].[moe]([m5C])p.[moe](T)[sp].[moe](T)}$$$$ (last 3' nucleoside missing)	0 score 0-7
RNA1{[moe](T)[sp].[moe](T)p.[moe](T)[sp].[moe]([m5C])[sp].[moe](A)[sp].d(T)[sp].d(T)[sp].d([m5C])[sp].d(G)[sp].d(G)[sp].d(T)[sp].d(T)[sp].d(A)[sp].d(T)[sp].d(A)[sp].[moe](A)[sp].[moe](G)p.[moe](G)[sp].[moe]([m5C])}$$$$ (last 3' nucleoside missing)	7 score 0-7
RNA1{[moe](G)[sp].[moe](T)p.[moe](T)p.[moe](T)p.[moe]([m5C])[sp].d(A)[sp].d(T)[sp].d(T)[sp].d([m5C])[sp].d(G)[sp].d(G)[sp].d(T)[sp].d(T)[sp].d(A)[sp].d(T)[sp].[moe](A)p.[moe](A)p.[moe](G)[sp].[moe](G)}$$$$ (last 3' nucleoside missing)	7 score 0-7
RNA1{[moe](A)[sp].[moe]([m5C])p.[moe](G)p.[moe]([m5C])p.[moe](A)[sp].d([m5C])[sp].d(T)[sp].d(T)[sp].d(A)[sp].d(A)[sp].d([m5C])[sp].d(A)[sp].d(A)[sp].d(T)[sp].d(A)[sp].[moe](T)p.[moe]([m5C])p.[moe](A)[sp].[moe](T)}$$$$ (last 3' nucleoside missing)	0 score 0-7
RNA1{[moe]([m5C])[sp].[moe](T)p.[moe](G)[sp].[moe](T)[sp].[moe]([m5C])[sp].d(A)[sp].d([m5C])[sp].d([m5C])[sp].d(T)[sp].d(T)[sp].d(T)[sp].d([m5C])[sp].d([m5C])[sp].d([m5C])[sp].d(A)[sp].[moe](A)[sp].[moe](T)p.[moe](G)[sp].[moe]([m5C])}$$$$ (last 3' nucleoside missing)	3 score 0-7
RNA1{[moe](T)[sp].[moe](G)p.[moe]([m5C])[sp].[moe](T)[sp].[moe](T)[sp].d(T)[sp].d([m5C])[sp].d(A)[sp].d(T)[sp].d(A)[sp].d(G)[sp].d([m5C])[sp].d(T)[sp].d(T)[sp].d([m5C])[sp].[moe]([m5C])[sp].[moe](A)p.[moe]([m5C])[sp].[moe]([m5C])}$$$$ (last 3' nucleoside missing)	4 score 0-7
RNA1{[moe]([m5C])[sp].[moe](G)p.[moe]([m5C])[sp].[moe](A)[sp].[moe]([m5C])[sp].d(T)[sp].d(T)[sp].d(A)[sp].d(A)[sp].d([m5C])[sp].d(A)[sp].d(A)[sp].d(T)[sp].d(A)[sp].d(T)[sp].[moe]([m5C])[sp].[moe](A)p.[moe](T)[sp].[moe](A)}$$$$ (last 3' nucleoside missing)	1 score 0-7
RNA1{[moe](T)[sp].[moe](G)p.[moe]([m5C])p.[moe](T)p.[moe]([m5C])[sp].d(T)[sp].d([m5C])[sp].d(T)[sp].d(T)[sp].d(T)[sp].d([m5C])[sp].d(T)[sp].d([m5C])[sp].d(A)[sp].d([m5C])[sp].[moe](A)p.[moe](T)p.[moe](A)[sp].[moe]([m5C])}$$$$ (last 3' nucleoside missing)	0 score 0-7
